Test results reported in article PMC5297809, “Design, Synthesis and Antifungal Activity Evaluation of New Thiazolin-4-ones as Potential Lanosterol 14α-Demethylase Inhibitors” (International Journal of Molecular Sciences, 2017).
Converted amounts (≈) assume the structure as drawn.

Tests used:
[1] = system: Candida albicans ATCC 18804; assay: broth microdilution MIC/MFC; type: cell-based; details: for MFC: ATCC18804, C. albicans ATCC 18804, read-out: MFC; for MIC: ATCC18804, C. albicans ATCC 18804, read-out: MIC
[2] = lipophilicity by RP-TLC with PCA; type: physicochemical; parameters: key to P1 / P2: PCA scores of compounds computed from Rf data; details: for RM0: RP-TLC C18, water-i-propanol 45-65%, intercept, RM extrapolated to 0% organic modifier (lipophilicity); for b: RP-TLC regression slope (specific hydrophobic surface area); for P1: score of first principal component of Rf data, low P1 = highly lipophilic; for P2: score of second principal component of Rf data
Protocol: The lipophilic character of twenty thiazolin-4-one derivatives was assessed with the help of the principal component analysis (PCA) based on the reversed-phase thin-layer chromatography (RP-TLC) data.
The chromatographic behavior of the test compounds was studied on C18 silicagel bonded 60 RP-180F254S TLC (20 × 20 cm) plates, purchased from Merck (Darmstadt, Germany). The test compounds’ solutions (1 mg/mL) were prepared by dissolving the samples in DMSO (Merck, Darmstadt, Germany). The plates were manually spotted with 3 µL aliquots of each solution at 10 mm from the base and 5 mm from the edge of the plate, leaving a 10 mm distance between successive spots, and developed by the ascending technique, without preconditioning. Chromatography was performed in a normal developing chamber at room temperature (~24 °C), the developing distance being of 9 cm. The solvent system used as mobile phase consisted of a water-i-propanol mixture, with a varying content of organic modifier (i-propanol—concentration ranged between 45% and 65% (v/v), with 5% vol. increments). Before the development, the chamber was saturated with the mobile phase for 15 min. After being developed, the dried plates were visually inspected under the UV light (λ = 254 nm), each spot was clearly marked and its distance was manually measured in order to calculate the Rf values. The spots of the compounds 3f, 10 and 11 were not visible in UV light, thus their Rf values could not be calculated, therefore they were excluded from this assay.
Based on the Rf values, one of the most common lipophilic estimator, meaning the isocratic retention factor RM was calculated using the Bate-Smith and Westall equations [40].
RP-TLC provides retention data in the form of Rf and the corresponding RM values (Equation (2)) that can be used to derive chromatographic descriptors for estimating lipophilicity: RM0, b and PCA. The most popular lipophilicity descriptor estimated by this method is RM and it is derived from the retention factor (Rf) according to the following formula: RM = log[(1/Rf) − 1] (2) where Rf is calculated on the basis of migration distance of a compound and the solvent front.
As RM value (related to the molecular lipophilicity) depends linearly on the concentration of the organic modifier in the mobile phase, the value is extrapolated to pure water as mobile phase. In order to increase the accuracy of the lipophilicity determination, the RM values extrapolated to zero organic modifier concentration (RM0) have been calculated from the linear correlation between the RM values and the concentration of the organic component of the mobile phase: RM = RM0 + bc (3) where RM0 is the lipophilicity estimation parameter, RM is the retention of the solute, b is the slope, and c is the concentration of the mobile phase organic modifier (i-propanol).
The intercept (RM0) in Equation (3) represents the extrapolated RM values at 0% organic modifier.
PCA was performed on the obtained retention parameters with the help of XL-STAT extension. […] PCA gave the coordinates (scores) of the studied compounds and also the loadings of the variables (solvents) on the principal components.

Candida krusei ATCC 6258 = assay: broth microdilution MIC/MFC; type: cell-based; details: Pichia kudriavzevii, ATCC6258, C. krusei ATCC 6258; for MFC: read-out: MFC; for MIC: read-out: MIC
[3] = system: Candida parapsilosis ATCC 22019; assay: broth microdilution MIC/MFC; type: cell-based; details: Lodderomyces parapsilosis, ATCC22019, C. parapsilosis ATCC 22019; for MFC: read-out: MFC; for MIC: read-out: MIC
[4] = system: Candida albicans ATCC 10231; assay: broth microdilution MIC/MFC; type: cell-based; details: for MFC: ATCC10231, C. albicans ATCC 10231, read-out: MFC; for MIC: ATCC10231, C. albicans ATCC 10231, read-out: MIC
[5] = system: Candida albicans ATCC 10231; assay: cup-plate agar diffusion method, inhibition zone diameters; type: cell-based; details: ATCC10231, C. albicans ATCC 10231, 1 mg/mL in DMSO, 20 µg/well, mean of three ± SD, read-out: inhibition zone diameters

Structure (SMILES): O=C1N=C(Nc2ccccc2)SC1=Cc1csc(-c2ccccc2)n1 [Compound 6d, 2-(Phenylamino)-5-((2-phenylthiazol-4-yl)methylene)thiazol-4(5H)-one]
- MFC [1]: 15.6 µg/mL (≈ 43 µM)
- MIC [1]: 7.81 µg/mL (≈ 21.5 µM)
- melting point: 287 to 289 °C
- RM0 [2]: 2.1996
- b [2]: −3.8092
- P1 [2]: −0.168
- P2 [2]: −0.359
- MFC (Candida krusei ATCC 6258): 15.6 µg/mL (≈ 43 µM)
- MIC (Candida krusei ATCC 6258): 7.81 µg/mL (≈ 21.5 µM)
- MFC [3]: 7.81 µg/mL (≈ 21.5 µM)
- MIC [3]: 3.9 µg/mL (≈ 10.7 µM)
- MFC [4]: 7.81 µg/mL (≈ 21.5 µM)
- MIC [4]: 3.9 µg/mL (≈ 10.7 µM)
- zone of inhibition at 1000 µg/mL [5]: 20 ± 1 mm

Structure (SMILES): C=CCNC1=NC(=O)C(=Cc2ccc(Cl)cc2Cl)S1 [Compound 3b, 2-(Allylamino)-5-(2,4-dichlorobenzylidene)thiazol-4(5H)-one]
- MFC [1]: 15.6 µg/mL (≈ 49.9 µM)
- MIC [1]: 15.6 µg/mL (≈ 49.9 µM)
- melting point: 238 °C
- RM0 [2]: 2.2398
- b [2]: −3.6102
- P1 [2]: −1.263
- P2 [2]: −0.062
- MFC (Candida krusei ATCC 6258): 31.2 µg/mL (≈ 99.8 µM)
- MIC (Candida krusei ATCC 6258): 15.6 µg/mL (≈ 49.9 µM)
- MFC [3]: 15.6 µg/mL (≈ 49.9 µM)
- MIC [3]: 7.81 µg/mL (≈ 24.9 µM)
- MFC [4]: 31.2 µg/mL (≈ 99.8 µM)
- MIC [4]: 31.2 µg/mL (≈ 99.8 µM)
- zone of inhibition at 1000 µg/mL [5]: 20 ± 0.5 mm

Structure (SMILES): O=C1N=C(Nc2ccccc2)SC1=Cc1ccc(Cl)cc1Cl [Compound 6b, 5-(2,4-Dichlorobenzylidene)-2-(phenylamino)thiazol-4(5H)-one]
- MFC [1]: 31.2 µg/mL (≈ 89.5 µM)
- MIC [1]: 15.6 µg/mL (≈ 44.7 µM)
- melting point: 204 to 206 °C
- RM0 [2]: 2.4679
- b [2]: −4.0118
- P1 [2]: −1.253
- P2 [2]: −0.186
- MFC (Candida krusei ATCC 6258): 7.81 µg/mL (≈ 22.4 µM)
- MIC (Candida krusei ATCC 6258): 7.81 µg/mL (≈ 22.4 µM)
- MFC [3]: 3.9 µg/mL (≈ 11.2 µM)
- MIC [3]: 3.9 µg/mL (≈ 11.2 µM)
- MFC [4]: 31.2 µg/mL (≈ 89.5 µM)
- MIC [4]: 15.6 µg/mL (≈ 44.7 µM)
- zone of inhibition at 1000 µg/mL [5]: 20 ± 1 mm

Structure (SMILES): C=CCNC1=NC(=O)C(=Cc2coc3ccc(Cl)cc3c2=O)S1 [Compound 3e, 2-(Allylamino)-5-((6-chloro-4-oxo-4H-chromen-3-yl)methylene)thiazol-4(5H)-one]
- MFC [1]: 31.2 µg/mL (≈ 90.1 µM)
- MIC [1]: 15.6 µg/mL (≈ 45 µM)
- melting point: 299 to 301 °C
- RM0 [2]: 2.2869
- b [2]: −3.9184
- P1 [2]: −0.349
- P2 [2]: −0.354
- MFC (Candida krusei ATCC 6258): 31.2 µg/mL (≈ 90.1 µM)
- MIC (Candida krusei ATCC 6258): 15.6 µg/mL (≈ 45 µM)
- MFC [3]: 15.6 µg/mL (≈ 45 µM)
- MIC [3]: 7.81 µg/mL (≈ 22.5 µM)
- MFC [4]: 62.5 µg/mL (≈ 180 µM)
- MIC [4]: 31.2 µg/mL (≈ 90.1 µM)
- zone of inhibition at 1000 µg/mL [5]: 20 ± 0.5 mm

Structure (SMILES): O=C1N=C(Nc2cccc3ccccc23)SC1=Cc1csc(-c2ccccc2)n1 [Compound 9d, 2-(Naphthalen-1-ylamino)-5-((2-phenylthiazol-4-yl)methylene)thiazol-4(5H)-one]
- MFC [1]: 3.9 µg/mL (≈ 9.43 µM)
- MIC [1]: 3.9 µg/mL (≈ 9.43 µM)
- melting point: 312 °C
- RM0 [2]: 3.287
- b [2]: −4.6935
- P1 [2]: −3.746
- P2 [2]: 0.618
- MFC (Candida krusei ATCC 6258): 0.48 µg/mL (≈ 1.16 µM)
- MIC (Candida krusei ATCC 6258): 0.24 µg/mL (≈ 0.58 µM)
- MFC [3]: 0.24 µg/mL (≈ 0.58 µM)
- MIC [3]: 0.12 µg/mL (≈ 0.29 µM)
- MFC [4]: 15.6 µg/mL (≈ 37.8 µM)
- MIC [4]: 7.81 µg/mL (≈ 18.9 µM)
- zone of inhibition at 1000 µg/mL [5]: 20 ± 1 mm

Structure (SMILES): C=CCNC1=NC(=O)CS1 [Compound 2, 2-(allylamino)thiazol-4(5H)-one]
- MFC [1]: 0.48 µg/mL (≈ 3.07 µM)
- MIC [1]: 0.24 µg/mL (≈ 1.54 µM)
- melting point: 90 to 91 °C
- RM0 [2]: 0.0414
- b [2]: −1.1059
- P1 [2]: 4.335
- P2 [2]: 0.879
- MFC (Candida krusei ATCC 6258): 0.48 µg/mL (≈ 3.07 µM)
- MIC (Candida krusei ATCC 6258): 0.24 µg/mL (≈ 1.54 µM)
- MFC [3]: 0.24 µg/mL (≈ 1.54 µM)
- MIC [3]: 0.12 µg/mL (≈ 0.768 µM)
- MFC [4]: 0.24 µg/mL (≈ 1.54 µM)
- MIC [4]: 0.12 µg/mL (≈ 0.768 µM)
- zone of inhibition at 1000 µg/mL [5]: 20 ± 0.2 mm

Structure (SMILES): C=CCNC1=NC(=O)C(=Cc2cccc(Cl)c2)S1 [Compound 3a, 2-(Allylamino)-5-(3-chlorobenzylidene)thiazol-4(5H)-one]
- MFC [1]: 31.2 µg/mL (≈ 112 µM)
- MIC [1]: 15.6 µg/mL (≈ 56 µM)
- melting point: 198 °C
- RM0 [2]: 2.0801
- b [2]: −3.6152
- P1 [2]: −0.090
- P2 [2]: −0.268
- MFC (Candida krusei ATCC 6258): 31.2 µg/mL (≈ 112 µM)
- MIC (Candida krusei ATCC 6258): 15.6 µg/mL (≈ 56 µM)
- MFC [3]: 15.6 µg/mL (≈ 56 µM)
- MIC [3]: 7.81 µg/mL (≈ 28 µM)
- MFC [4]: 31.2 µg/mL (≈ 112 µM)
- MIC [4]: 31.2 µg/mL (≈ 112 µM)
- zone of inhibition at 1000 µg/mL [5]: 20 ± 0.5 mm

Structure (SMILES): C=CCNC1=NC(=O)C(=Cc2csc(-c3ccccc3)n2)S1 [Compound 3d, 2-(Allylamino)-5-((2-phenylthiazol-4-yl)methylene)thiazol-4(5H)-one]
- MFC [1]: 62.5 µg/mL (≈ 191 µM)
- MIC [1]: 31.2 µg/mL (≈ 95.4 µM)
- melting point: 339 °C
- RM0 [2]: 2.2119
- b [2]: −3.7366
- P1 [2]: −0.549
- P2 [2]: −0.241
- MFC (Candida krusei ATCC 6258): 31.2 µg/mL (≈ 95.4 µM)
- MIC (Candida krusei ATCC 6258): 15.6 µg/mL (≈ 47.7 µM)
- MFC [3]: 15.6 µg/mL (≈ 47.7 µM)
- MIC [3]: 7.81 µg/mL (≈ 23.9 µM)
- MFC [4]: 62.5 µg/mL (≈ 191 µM)
- MIC [4]: 31.2 µg/mL (≈ 95.4 µM)
- zone of inhibition at 1000 µg/mL [5]: 20 ± 0.2 mm

Structure (SMILES): O=C1N=C(Nc2ccccc2)SC1=Cc1coc2ccc(Cl)cc2c1=O [Compound 6e, 5-((6-Chloro-4-oxo-4H-chromen-3-yl)methylene)-2-(phenylamino)thiazol-4(5H)-one]
- MFC [1]: 3.9 µg/mL (≈ 10.2 µM)
- MIC [1]: 0.97 µg/mL (≈ 2.53 µM)
- melting point: 356 °C
- RM0 [2]: 2.22
- b [2]: −3.9066
- P1 [2]: 0.079
- P2 [2]: −0.443
- MFC (Candida krusei ATCC 6258): 3.9 µg/mL (≈ 10.2 µM)
- MIC (Candida krusei ATCC 6258): 0.97 µg/mL (≈ 2.53 µM)
- MFC [3]: 0.97 µg/mL (≈ 2.53 µM)
- MIC [3]: 0.48 µg/mL (≈ 1.25 µM)
- MFC [4]: 3.9 µg/mL (≈ 10.2 µM)
- MIC [4]: 1.95 µg/mL (≈ 5.09 µM)
- zone of inhibition at 1000 µg/mL [5]: 16 ± 1 mm
